Bridge positions count the residues as written; N and C are the ends. Ends that are not written are not given here.

We go through seven molecules from PMC9486805, “Identification of a Phage Display-Derived Peptide Interacting with the N-Terminal Region of Factor VII Activating Protease (FSAP) Enables Characterization of Zymogen Activation” (ACS Chemical Biology, 2022).

In test [1] the test system is purified pro-FSAP. To be noted: heparin ref 13, 14; nucleic acids ref 15, 16; dextran sulfate ref 13; cited from earlier work. The text has this:
This leads to cleavag ...

The test system of test [2] is EGF3 domain of FSAP. To be noted: cited from earlier work. The text has this:
To identify the domain of FSAP responsible for binding to NNKC9/41, we expressed various domain deletion mutants of pro-FSAP as His-tagged proteins in E. coli as described before.[36] The N-terminus of pro- FSAP (heavy chain) consists of the intrinsically disordered N-terminal region (NTR), three EGF domains, and a kringle domain, whereas the C-terminal-light chain contains the serine protease domain (SPD) (Figure 2C). […] The recombinant proteins (Figure 2D) were captured on polyclonal FSAP an ...

For test [3], the target named is T1, pro-FSAP in human plasma (Homo sapiens, UniProt Q14520).
T1 construct: from tissue; host or cells: human hirudin or citrate plasma from healthy donors, diluted 1:12
T1 sequence (Q14520 24-560): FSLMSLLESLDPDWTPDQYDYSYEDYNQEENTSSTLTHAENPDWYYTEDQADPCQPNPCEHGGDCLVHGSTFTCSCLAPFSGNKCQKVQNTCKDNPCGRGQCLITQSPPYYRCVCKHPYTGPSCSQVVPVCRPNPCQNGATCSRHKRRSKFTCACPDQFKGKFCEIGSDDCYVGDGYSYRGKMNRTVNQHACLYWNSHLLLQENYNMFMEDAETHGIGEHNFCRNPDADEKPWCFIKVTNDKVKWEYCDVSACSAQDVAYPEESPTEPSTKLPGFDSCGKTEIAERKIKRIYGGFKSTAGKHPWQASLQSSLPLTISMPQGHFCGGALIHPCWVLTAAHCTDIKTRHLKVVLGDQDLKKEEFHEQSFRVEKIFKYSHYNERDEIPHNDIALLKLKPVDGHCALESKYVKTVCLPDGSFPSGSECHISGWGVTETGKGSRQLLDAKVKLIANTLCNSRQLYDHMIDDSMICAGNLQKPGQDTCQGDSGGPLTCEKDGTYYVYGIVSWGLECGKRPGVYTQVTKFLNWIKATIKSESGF
Kind of test: Activation of endogenous pro-FSAP in plasma, fluorogenic substrate turnover. The format is biochemical. As for the experimental part: Human citrate plasma (0.38% w/v) or hirudin plasma (25 μg/mL Lepirudin) was obtained from five healthy donors. Plasma was diluted at 1:12 and mixed with various test substances that potentially activate or inhibit pro-FSAP. Ac–Ala–Lys–Nle–Arg–AMC (amino–methyl–coumarin) was used as a sensitive and specific substrate for FSAP.[35] Hydrolysis of the fluorogenic substrates was measured using a Synergy HI plate reader with excitation at 320 nm and emission at 460 nm at 37 °C for 60 min. The maximal velocity was calculated from the linear part of the progress curve. In limited experiments, the second-generation fluorogenic FSAP substrate (Ac–Pro–DTyr–Lys–Arg–AMC)[34] was used. Pro-uPA activation, formation of FSAP−α2-antiplasmin, and western blotting with anti-FSAP antibodies were also used to monitor pro-FSAP activation.

Test [4] concerns the target T2, pro-FSAP purified from human plasma (Homo sapiens, UniProt Q14520).
T2 construct: Pro-FSAP was isolated from human plasma as described before; from tissue; host or cells: human plasma
In words: Pro-FSAP activation assay, purified pro-FSAP, chromogenic substrate S-2288. The format is biochemical. The procedure: Figure 1 Isolation of pro-FSAP binding peptides and their activity: (A) strategy to isolate high-affinity phages from the NNKC9 and NNK11 libraries that bind to pro-FSAP. To select for strong binders, an excess of free pro-FSAP protein was used for competitive elution of low-affinity binders. High-affinity binders retained on the beads were analyzed further. The sequences of major positive clones identified through an ELISA-based binding assay from the NNKC9 and NNK11 libraries are shown. (B) NNK11/189 and scrambled controls (0–50 μM) and histones (0–50 μg/mL) were added to purified pro-FSAP (1.0 μg/mL) and the turnover of the chromogenic substrate S-2288 (200 μM) was measured. (C) NNKC9/41 was compared to a peptide that was synthetically monocyclized (Cys–Cys cyclic), a peptide with Ser residues instead of Cys at both ends (Ser–Ser linear), a peptide with Ser residues at the end cyclized head to tail (Ser–Ser cyclic), and a scrambled peptide in a pro-FSAP activation assay. (D) Hirudin plasma (1:12 dilution) was incubated with histones (25 μg/mL), NNKC9/41, or Ser–Ser linear control (each, 25 μM), the fluorogenic substrate turnover (Ac–Ala–Lys–Nle–Arg–AMC) was monitored in duplicate wells, and results from a single well are shown. In panels (B) and (C), results are shown as mean + range (duplicate wells). Results were replicated with five different batches of NNKC9/41 (panels (B) and (C)).
Pro-FSAP was isolated from human plasma as described before.[14] The content of the zymogen form varied from 50% to 90% due to autoactivation during the purification process. Histones, isolated from the calf thymus, were obtained from Sigma-Aldrich (Oslo, Norway). FSAP activity assays were performed as described previously.[51] In brief, microtiter wells were blocked with TBS (25 mM Tris–HCl, pH 7.5, and 150 mM NaCl) containing 3% (w/v) BSA for 1 h and washed with TBS-T. The standard assay consisted of TBS-T with 0.3% (w/v) BSA and CaCl2 (2 mM) 1 μg/mL (15 nM) plasma purified pro-FSAP and 250 μM chromogenic substrate S-2288 (D-Ile-L-Pro-L-Arg-p-nitroaniline dihydrochloride) (Haemochrome Diagnostica, Essen, Germany) and was followed at 37 °C at 405 nm in a microplate reader Synergy HI plate reader (BioTek Instruments, Winooski). In some experiments, a fluorescent substrate of FSAP[35] was used.

For test [5], the target named is T1, pro-FSAP in human plasma. Particulars: NNKC9/41; cited from earlier work. The source says:
The contact pathway of blood coagulation is activated by negatively charged surfaces,[44] and we also tested whether it was involved in any way in the pro-FSAP activation process. […] The kallikrein inhibitor PKS1-527 had no effect,[43] but aprotinin, a general serine protease inhibitor, blocked pro-FSAP activation/activ ...

Where [6] appears, read: hirudin plasma, Ac–Pro–DTyr–Lys–Arg–AMC (Fig S3).

T2 sequence (Q14520 24-560): as above

Regarding dextran sulfate, the “activation of purified pro-FSAP” value in test [1] is “activate purified pro-FSAP”.

On to heparin, for which the “binding to the EGF3 domain” value in test [2] is “binds to the EGF3 domain”. Further, the “activation of purified pro-FSAP” value in test [1] was “activate purified pro-FSAP”.

Turning to aprotinin [reference compound], in test [3] (hirudin plasma 1:12, NNKC9/41 25 μM, CTI 80 μg/mL, aprotinin 100 μg/mL, MA-570 20 μg/mL, read-outs of Fig 4D–F (MA-FSAP-570 only Fig 4D,E)), the “effect of inhibitor on pro-FSAP activation by the peptide” value was “blocked pro-FSAP activation/activity”.

IDCLMQNAGSA [NNK11/189]: the “effect on pro-FSAP activation” value in test [4] (purified pro-FSAP 1.0 μg/mL, peptides 0–50 μM, histones 0–50 μg/mL, S-2288 (200 μM in legend b10, 250 μM in method b60), 37 °C, 405 nm, duplicate wells) was “did not have any effect on pro-FSAP activation”.

`Cl.NCC1CCC(C(=O)N[C@@H](Cc2ccccc2)C(=O)Nc2ccc(CC(=O)O)cc2)CC1` (stereo partly shown) [PKS1-527]: the “effect of kallikrein inhibitor” value in test [5] is “had no effect”.

Regarding “CRGAMWMYKRC (disulfide 1-11 (inferred)) [cyclic dimer, antiparallel cyclic dimer of NNKC9/41 through terminal Cys groups]”, the “presence in HPLC fractions active in pro-FSAP activation” value in test [3] (RP-HPLC fractions of NNKC9/41 tested in hirudin plasma, LC–MS (Fig S1)) was “found in all of the active fractions”. For the same molecule, in test [3] (setting [6]), the “activity at higher concentrations” value was “pronounced decrease in activity at higher concentrations” and the “maximal activity vs NNKC9/41” value is recorded as “slightly lower”.

Regarding “CRGAMWMYKRC (not fully specified (N-terminus); also: oxidation gives mixture of Cys1-Cys11 monocycle and disulfide-linked antiparallel dimers) [NNKC9/41]”, the EC50 in test [4] (purified pro-FSAP activation, S-2288, linear synthetic peptide stored under oxidative conditions, five batches) is 8 to 15 µM.
